The target in this assay is T1, tau (microtubule-associated protein tau) (Homo sapiens, UniProt P10636).
T1 construct: gene MAPT
Nature of the assay: ThT fluorescence assay of heparin-induced aggregation of recombinant tau; 3RMBD result confirmed by TEM and CD. In kind it is biochemical. The text has this:
ThT fluorescence assay of heparin-induced aggregation of recombinant tau; 3RMBD result confirmed by TEM and CD on tau (microtubule-associated protein tau) | PE859 inhibited the heparin-induced aggregation of both 3RMBD and full length tau in a concentration-dependent manner.

T1 sequence (P10636 150-247 isoform P10636-3): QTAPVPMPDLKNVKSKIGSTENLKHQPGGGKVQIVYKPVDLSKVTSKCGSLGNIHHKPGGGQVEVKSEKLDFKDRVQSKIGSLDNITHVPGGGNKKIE

By IC50 is commonly meant the midpoint of a concentration-inhibition curve. As for `COc1cc(OCc2ccccn2)ccc1/C=C/c1cc(/C=C/c2ccc3cc[nH]c3c2)[nH]n1` [PE859, 3-[(1E)-2-(1H-indol-6-yl)ethenyl]-5-[(1E)-2-[2-methoxy-4-(2-pyridylmethoxy)phenyl]ethenyl]-1H-pyrazole], the IC50 was 810 nM.

(Values after publication PMC4319983, “PE859, a Novel Tau Aggregation Inhibitor, Reduces Aggregated Tau and Prevents Onset and Progression of Neural Dysfunction In Vivo” (PLoS ONE, 2015).)
